Results published in publication PMC5218480 (PLoS ONE, 2017).

System: MV-4-11 cells
Experiment: Gene expression microarray analysis (Affymetrix PrimeView) and GSEA
Format: cell-based, human
Set-up: RFU PODN (11730768_x_at) / Fold change /veh PODN (11730768_x_at) / RFU LINC00158 (11744669_a_at) / Fold change /veh LINC00158 (11744669_a_at) / RFU DUSP10 (11751237_a_at) / Fold change /veh DUSP10 (11751237_a_at) / RFU ID3 (11757404_x_at) / Fold change /veh ID3 (11757404_x_at) / RFU PLEKHG5 (11737974_s_at) / Fold change /veh PLEKHG5 (11737974_s_at) / RFU LRRC4B (11730491_at) / Fold change /veh LRRC4B (11730491_at) / RFU GIMAP4 (11747438_a_at) / Fold change /veh GIMAP4 (11747438_a_at) / RFU KRT8 (11758183_x_at) / Fold change /veh KRT8 (11758183_x_at) / RFU CNN1 (11734310_a_at) / Fold change /veh CNN1 (11734310_a_at) / RFU VPS37D (11726825_at) / Fold change /veh VPS37D (11726825_at) / RFU C10orf10 (11716522_x_at) / Fold change /veh C10orf10 (11716522_x_at) / RFU KIR2DL2 /// KIR2DL4 /// KIR2DL5A /// KIR2DL5B /// KIR2DS1 /// KIR2DS2 /// KIR2DS3 /// KIR2DS4 /// KIR3DL3 /// KIR3DL3 /// KIR3DS1 (11738374_at) / Fold change /veh KIR2DL2 /// KIR2DL4 /// KIR2DL5A /// KIR2DL5B /// KIR2DS1 /// KIR2DS2 /// KIR2DS3 /// KIR2DS4 /// KIR3DL3 /// KIR3DL3 /// KIR3DS1 (11738374_at) / RFU C1QL1 (11718748_at) / Fold change /veh C1QL1 (11718748_at) / RFU TMPRSS4 (11747572_a_at) / Fold change /veh TMPRSS4 (11747572_a_at) / RFU HAMP (11756126_x_at) / Fold change /veh HAMP (11756126_x_at) / RFU RNFT2 (11725882_a_at) / Fold change /veh RNFT2 (11725882_a_at) / RFU NR4A2 (11747474_a_at) / Fold change /veh NR4A2 (11747474_a_at) / RFU ABCC12 (11746883_a_at) / Fold change /veh ABCC12 (11746883_a_at) / RFU TMEM136 (11760407_x_at) / Fold change /veh TMEM136 (11760407_x_at) / RFU CLDN22 /// WWC2 (11732394_at) / Fold change /veh CLDN22 /// WWC2 (11732394_at) / RFU HLA-DPB1 (11760878_x_at) / Fold change /veh HLA-DPB1 (11760878_x_at) / RFU SPINT1 (11716480_a_at) / Fold change /veh SPINT1 (11716480_a_at) / RFU GAP43 (11754022_s_at) / Fold change /veh GAP43 (11754022_s_at) / RFU A4GNT (11735810_at) / Fold change /veh A4GNT (11735810_at) / RFU PRB3 (11715151_x_at) / Fold change /veh PRB3 (11715151_x_at) / RFU TUBB4B (11761932_at) / Fold change /veh TUBB4B (11761932_at) / RFU CAPN14 (11732068_a_at) / Fold change /veh CAPN14 (11732068_a_at) / RFU TMCC2 (11721928_a_at) / Fold change /veh TMCC2 (11721928_a_at) / RFU IRGQ (11745062_a_at) / Fold change /veh IRGQ (11745062_a_at) / RFU FAM174B (11720279_a_at) / Fold change /veh FAM174B (11720279_a_at) / RFU TMPRSS4 (11748680_a_at) / Fold change /veh TMPRSS4 (11748680_a_at) / RFU FAM212B (11763350_a_at) / Fold change /veh FAM212B (11763350_a_at) / RFU PLEKHG5 (11743358_a_at) / Fold change /veh PLEKHG5 (11743358_a_at) / RFU ZSCAN30 (11745921_a_at) / Fold change /veh ZSCAN30 (11745921_a_at) / RFU CMKLR1 (11741424_a_at) / Fold change /veh CMKLR1 (11741424_a_at) / RFU LOC101060620 /// MAPK8IP1 (11723275_at) / Fold change /veh LOC101060620 /// MAPK8IP1 (11723275_at) / RFU SPTSSB (11747773_x_at) / Fold change /veh SPTSSB (11747773_x_at) / RFU PRSS12 (11739890_at) / Fold change /veh PRSS12 (11739890_at) / RFU BIN1 (11741810_x_at) / Fold change /veh BIN1 (11741810_x_at) / RFU WNT11 (11732464_a_at) / Fold change /veh WNT11 (11732464_a_at) / RFU C10orf10 (11716521_a_at) / Fold change /veh C10orf10 (11716521_a_at) / RFU C5orf56 (11738089_at) / Fold change /veh C5orf56 (11738089_at) / RFU CYB561 (11721691_x_at) / Fold change /veh CYB561 (11721691_x_at) / RFU ANKRD19P (11752326_a_at) / Fold change /veh ANKRD19P (11752326_a_at) / RFU OR2T12 /// OR2T33 /// OR2T8 (11738714_s_at) / Fold change /veh OR2T12 /// OR2T33 /// OR2T8 (11738714_s_at) / RFU VCAN (11748164_a_at) / Fold change /veh VCAN (11748164_a_at) / RFU JSRP1 (11732532_at) / Fold change /veh JSRP1 (11732532_at) / RFU KRTAP10-11 (11738290_x_at) / Fold change /veh KRTAP10-11 (11738290_x_at) / RFU MYO3A (11730013_a_at) / Fold change /veh MYO3A (11730013_a_at) / RFU EBF3 (11725865_a_at) / Fold change /veh EBF3 (11725865_a_at) / RFU CAMK2N1 (11719241_x_at) / Fold change /veh CAMK2N1 (11719241_x_at) / RFU C5orf56 (11738088_a_at) / Fold change /veh C5orf56 (11738088_a_at) / RFU OLFML3 (11715873_a_at) / Fold change /veh OLFML3 (11715873_a_at) / RFU LOC100653217 /// NTM (11731650_a_at) / Fold change /veh LOC100653217 /// NTM (11731650_a_at) / RFU MAPK11 (11762145_a_at) / Fold change /veh MAPK11 (11762145_a_at) / RFU FIZ1 (11724087_x_at) / Fold change /veh FIZ1 (11724087_x_at) / RFU OASL (11726364_x_at) / Fold change /veh OASL (11726364_x_at) / RFU SOX15 (11748057_x_at) / Fold change /veh SOX15 (11748057_x_at) / RFU CD79A (11719716_a_at) / Fold change /veh CD79A (11719716_a_at) / RFU HIST1H1D (11736915_at) / Fold change /veh HIST1H1D (11736915_at) / RFU CASKIN2 (11723855_a_at) / Fold change /veh CASKIN2 (11723855_a_at) / RFU LOC730098 (11760151_x_at) / Fold change /veh LOC730098 (11760151_x_at) / RFU OR4N2 (11742367_at) / Fold change /veh OR4N2 (11742367_at) / RFU PRRT2 (11749266_a_at) / Fold change /veh PRRT2 (11749266_a_at) / RFU SNX32 (11753110_a_at) / Fold change /veh SNX32 (11753110_a_at) / RFU CDHR5 (11726645_a_at) / Fold change /veh CDHR5 (11726645_a_at) / RFU RCAN1 (11760418_a_at) / Fold change /veh RCAN1 (11760418_a_at) / RFU FAM167A (11723789_a_at) / Fold change /veh FAM167A (11723789_a_at) / RFU FAM26E (11764081_at) / Fold change /veh FAM26E (11764081_at) / RFU ISYNA1 (11749810_s_at) / Fold change /veh ISYNA1 (11749810_s_at) / RFU ACY1 (11761880_at) / Fold change /veh ACY1 (11761880_at) / RFU 11764098_at / Fold change /veh 11764098_at / RFU SAMD14 (11745864_x_at) / Fold change /veh SAMD14 (11745864_x_at) / RFU NPB (11741838_a_at) / Fold change /veh NPB (11741838_a_at) / RFU TMPRSS6 (11731388_a_at) / Fold change /veh TMPRSS6 (11731388_a_at) / RFU KRTAP10-2 (11738614_at) / Fold change /veh KRTAP10-2 (11738614_at) / RFU ARHGAP8 /// PRR5-ARHGAP8 (11727945_x_at) / Fold change /veh ARHGAP8 /// PRR5-ARHGAP8 (11727945_x_at) / RFU KRTAP5-7 /// NADSYN1 (11734609_at) / Fold change /veh KRTAP5-7 /// NADSYN1 (11734609_at) / RFU RASL12 (11751679_a_at) / Fold change /veh RASL12 (11751679_a_at) / RFU CDKN2B (11736163_a_at) / Fold change /veh CDKN2B (11736163_a_at) / RFU PRF1 (11729649_at) / Fold change /veh PRF1 (11729649_at) / RFU, ZNF638 /// ZNF638-IT1 / Fold change vs veh, ZNF638 /// ZNF638-IT1 / RFU, PANK3 / Fold change vs veh, PANK3 / RFU, SH3YL1 / Fold change vs veh, SH3YL1 / RFU, ZEB2 / Fold change vs veh, ZEB2 / RFU, NRIP1 / Fold change vs veh, NRIP1 / RFU, PTTG1IP / Fold change vs veh, PTTG1IP / RFU, CAPN2 / Fold change vs veh, CAPN2 / RFU, MED14 / Fold change vs veh, MED14 / RFU, SNORA58 / Fold change vs veh, SNORA58 / RFU, C1orf63 / Fold change vs veh, C1orf63 / RFU, LRRFIP1 / Fold change vs veh, LRRFIP1 / RFU, NDUFAF7 / Fold change vs veh, NDUFAF7 / RFU, SLC12A2 / Fold change vs veh, SLC12A2 / RFU, IBTK / Fold change vs veh, IBTK / RFU, ESF1 / Fold change vs veh, ESF1 / Fold change vs veh, TMEM50B / RFU, TAOK1 / Fold change vs veh, TAOK1 / RFU, ACBD3 / Fold change vs veh, ACBD3 / RFU, TMA16 / Fold change vs veh, TMA16 / RFU, RWDD3 / Fold change vs veh, RWDD3 / RFU, BCAT1 / Fold change vs veh, BCAT1 / RFU, EDEM3 / Fold change vs veh, EDEM3 / RFU, TMEM33 / Fold change vs veh, TMEM33 / RFU, WDR75 / Fold change vs veh, WDR75 / RFU, AHCTF1 / Fold change vs veh, AHCTF1 / RFU, TFRC / Fold change vs veh, TFRC / RFU, ZDHHC17 / Fold change vs veh, ZDHHC17 / RFU, NOM1 / Fold change vs veh, NOM1 / RFU, ARL8B / Fold change vs veh, ARL8B / RFU, ZBTB11 / Fold change vs veh, ZBTB11 / RFU, TAMM41 / Fold change vs veh, TAMM41 / RFU, KIAA1704 /// LOC100996395 / Fold change vs veh, KIAA1704 /// LOC100996395 / RFU, ING1 / Fold change vs veh, ING1 / RFU, TRMT61B / Fold change vs veh, TRMT61B / RFU, FUBP3 / Fold change vs veh, FUBP3 / RFU, TP53 / Fold change vs veh, TP53 / RFU, TNKS2 / Fold change vs veh, TNKS2 / RFU, ZFP14 / Fold change vs veh, ZFP14 / RFU, ACTR2 / Fold change vs veh, ACTR2 / RFU, PPP3R1 / Fold change vs veh, PPP3R1 / RFU, PIK3R1 / Fold change vs veh, PIK3R1 / RFU, HNRNPA1 / Fold change vs veh, HNRNPA1 / RFU, RNF170 / Fold change vs veh, RNF170 / RFU, ZNF28 / Fold change vs veh, ZNF28 / RFU, RNGTT / Fold change vs veh, RNGTT / RFU, OGT / Fold change vs veh, OGT / RFU, BRD1 / Fold change vs veh, BRD1 / RFU, MARS / Fold change vs veh, MARS / RFU, ZNF655 / Fold change vs veh, ZNF655 / RFU, FAHD1 / Fold change vs veh, FAHD1 / RFU, BDP1 / Fold change vs veh, BDP1 / RFU, LRRCC1 / Fold change vs veh, LRRCC1 / RFU, ARID1A / Fold change vs veh, ARID1A / RFU, ZNF146 / Fold change vs veh, ZNF146 / RFU, ZNF330 / Fold change vs veh, ZNF330 / RFU, GPN3 / Fold change vs veh, GPN3 / RFU, C9orf123 / Fold change vs veh, C9orf123 / RFU, N4BP2L2 / Fold change vs veh, N4BP2L2 / RFU, ARFIP1 / Fold change vs veh, ARFIP1 / RFU, FAM179B / Fold change vs veh, FAM179B / RFU, BCL10 / Fold change vs veh, BCL10 / RFU, UHRF1BP1L / Fold change vs veh, UHRF1BP1L / RFU, BET1 / Fold change vs veh, BET1 / RFU, CNOT2 / Fold change vs veh, CNOT2 / RFU, ZNF268 / Fold change vs veh, ZNF268 / Fold change vs veh, ZNF507 / RFU, DGCR2 / Fold change vs veh, DGCR2 / RFU, WDSUB1 / Fold change vs veh, WDSUB1 / Fold change vs veh, HSP90B1 /// MIR3652 / RFU, ADSS / Fold change vs veh, ADSS / RFU, GK / Fold change vs veh, GK / RFU, ZNF148 / Fold change vs veh, ZNF148 / RFU, TAF9 / Fold change vs veh, TAF9 / RFU, SLC1A5 / Fold change vs veh, SLC1A5 / RFU, SLMO2 / Fold change vs veh, SLMO2 / RFU, ABCC4 / Fold change vs veh, ABCC4 / RFU, LOC101060439 /// RAP1B / Fold change vs veh, LOC101060439 /// RAP1B / RFU, RFX7 / Fold change vs veh, RFX7 / RFU, GTPBP10 / Fold change vs veh, GTPBP10 / RFU, CNEP1R1 / Fold change vs veh, CNEP1R1 / RFU, BIVM-ERCC5 /// ERCC5 / Fold change vs veh, BIVM-ERCC5 /// ERCC5 / RFU, ILF3 / Fold change vs veh, ILF3 / RFU 11762660_at / Fold change /veh 11762660_at / RFU VCAN (11757783_s_at) / Fold change /veh VCAN (11757783_s_at) / RFU DDX43 (11728927_at) / Fold change /veh DDX43 (11728927_at) / RFU KRT8 (11758188_x_at) / Fold change /veh KRT8 (11758188_x_at) / RFU NKD1 (11759106_at) / Fold change /veh NKD1 (11759106_at) / RFU SRD5A1 (11742802_a_at) / Fold change /veh SRD5A1 (11742802_a_at) / RFU TPSAB1 /// TPSB2 (11721975_s_at) / Fold change /veh TPSAB1 /// TPSB2 (11721975_s_at) / RFU GSTM3 (11746129_a_at) / Fold change /veh GSTM3 (11746129_a_at) / RFU IL23R (11737362_x_at) / Fold change /veh IL23R (11737362_x_at) / RFU TMEM51 (11727254_a_at) / Fold change /veh TMEM51 (11727254_a_at) / RFU PIWIL2 (11732686_x_at) / Fold change /veh PIWIL2 (11732686_x_at) / RFU ORM1 (11744905_x_at) / Fold change /veh ORM1 (11744905_x_at) / RFU CCDC152 (11743942_at) / Fold change /veh CCDC152 (11743942_at) / RFU ECM1 (11717891_a_at) / Fold change /veh ECM1 (11717891_a_at) / RFU IL23R (11748794_a_at) / Fold change /veh IL23R (11748794_a_at) / RFU TNFAIP8L3 (11732012_x_at) / Fold change /veh TNFAIP8L3 (11732012_x_at) / RFU MBOAT4 (11741988_at) / Fold change /veh MBOAT4 (11741988_at) / RFU 11764193_at / Fold change /veh 11764193_at / RFU TMEM53 (11763286_at) / Fold change /veh TMEM53 (11763286_at) / RFU MAGEB2 (11727129_at) / Fold change /veh MAGEB2 (11727129_at) / RFU TMEM200A (11744735_a_at) / Fold change /veh TMEM200A (11744735_a_at) / RFU CCDC152 (11751479_a_at) / Fold change /veh CCDC152 (11751479_a_at) / RFU FAM211A (11726209_a_at) / Fold change /veh FAM211A (11726209_a_at) / RFU RGS16 (11746705_a_at) / Fold change /veh RGS16 (11746705_a_at) / RFU VCAN (11755009_s_at) / Fold change /veh VCAN (11755009_s_at) / RFU RHOB (11743442_s_at) / Fold change /veh RHOB (11743442_s_at) / RFU RGS16 (11720943_a_at) / Fold change /veh RGS16 (11720943_a_at) / RFU RGS16 (11720944_at) / Fold change /veh RGS16 (11720944_at) / RFU, VPS4B / Fold change vs veh, VPS4B / RFU, CREB1 / Fold change vs veh, CREB1 / RFU, DNAJC13 / Fold change vs veh, DNAJC13 / RFU, GNAQ / Fold change vs veh, GNAQ / RFU, CDK5R1 / Fold change vs veh, CDK5R1 / RFU, ZRANB3 / Fold change vs veh, ZRANB3 / RFU, CUL4A / Fold change vs veh, CUL4A / RFU, CCNY / Fold change vs veh, CCNY / RFU, UFL1 / Fold change vs veh, UFL1 / RFU, COG3 / Fold change vs veh, COG3 / RFU, DIAPH2 / Fold change vs veh, DIAPH2 / RFU, SKA2 / Fold change vs veh, SKA2 / RFU, AFF3 / Fold change vs veh, AFF3 / RFU, LMF1 / Fold change vs veh, LMF1 / RFU, IPO11 / Fold change vs veh, IPO11 / RFU, DFFB / Fold change vs veh, DFFB / RFU, FOXP1 / Fold change vs veh, FOXP1 / RFU, CARD8 / Fold change vs veh, CARD8 / RFU, STRN3 / Fold change vs veh, STRN3 / RFU, ADK / Fold change vs veh, ADK / RFU, RASSF2 / Fold change vs veh, RASSF2 / RFU, WIPF1 / Fold change vs veh, WIPF1 / RFU, LARP1B / Fold change vs veh, LARP1B / RFU, RASA1 / Fold change vs veh, RASA1 / RFU, RB1 / Fold change vs veh, RB1 / RFU, PPFIA1 / Fold change vs veh, PPFIA1 / RFU, MAT2A / Fold change vs veh, MAT2A / RFU, CCT5 / Fold change vs veh, CCT5 / RFU, WDR92 / Fold change vs veh, WDR92 / RFU, CUX1 / Fold change vs veh, CUX1 / RFU, TTC7A / Fold change vs veh, TTC7A / RFU, TMEM135 / Fold change vs veh, TMEM135 / RFU, DEPTOR / Fold change vs veh, DEPTOR / RFU, CPM / Fold change vs veh, CPM / RFU, DNAJB6 / Fold change vs veh, DNAJB6 / RFU, CACNA2D3 / Fold change vs veh, CACNA2D3 / RFU, DTX4 / Fold change vs veh, DTX4 / RFU, TFCP2 / Fold change vs veh, TFCP2 / RFU, GMCL1 /// GMCL1P1 / Fold change vs veh, GMCL1 /// GMCL1P1 / RFU, AEBP2 / Fold change vs veh, AEBP2 / RFU, SNHG1 /// SNORD22 /// SNORD25 /// SNORD26 /// SNORD27 /// SNORD28 /// SNORD29 /// SNORD31 / Fold change vs veh, SNHG1 /// SNORD22 /// SNORD25 /// SNORD26 /// SNORD27 /// SNORD28 /// SNORD29 /// SNORD31 / Fold change (Aza/veh), C12orf56 (ProbeSet 11735607_a_at) / Fold change (ACY-1035/veh), C12orf56 (ProbeSet 11735607_a_at) / Fold change (Aza/veh), FGFR1OP (ProbeSet 11751329_s_at) / Fold change (ACY-1035/veh), FGFR1OP (ProbeSet 11751329_s_at) / Fold change (Aza/veh), VPS36 (ProbeSet 11739960_a_at) / Fold change (ACY-1035/veh), VPS36 (ProbeSet 11739960_a_at) / RFU SYPL1 (11715823_x_at) / Fold change /veh SYPL1 (11715823_x_at) / RFU IGFBP7 (11715501_s_at) / Fold change /veh IGFBP7 (11715501_s_at) / RFU REEP3 (11722064_at) / Fold change /veh REEP3 (11722064_at) / RFU IGLL1 (11728026_x_at) / Fold change /veh IGLL1 (11728026_x_at): dose or concentration left out as unconfirmed
Conditions: ProbeSet 11748335_a_at; LIST B

SMILES: Nc1ncn([C@@H]2O[C@H](CO)[C@@H](O)[C@H]2O)c(=O)n1 [azacitidine]
- Fold change vs veh, SLMO2: 0.87
